Biological target: T1, human GPR84 receptor (Homo sapiens, UniProt Q9NQS5)
T1 construct: host or cells: HEK293 cells, transient transfection
Assay: Gαi biosensor BRET assay in HEK293 cells transfected with GPR84, stimulated with the GPR84 agonist ZQ-16
Type: cell-based
Conditions: 200 nmol/L ZQ-16; for inhibition at 10 µM / inhibition at 2 µM: HEK293, single concentration; for inhibition at 10 µM: concentration class F = 10 μM; for inhibition at 2 µM: concentration class A = 2 μM
Excerpt: Background—The following assays can be used for determination of GPR84 activation in living HEK293 cells. The Gαi BRET biosensor (Gagnon et al., 2018; Gales et al., 2006. Nat Struct Mol Biol. 13, 778-86; Saulieres et al., 2012. Nat Chem Biol. 8, 622-30) allows to directly monitor GPR84-mediated activation of Gαi. The Gαi biosensor consists of a Rluc8-tagged Gαi2 subunit, a GFP10-tagged Gγ2 subunit, and an untagged GB1. Agonist stimulation and GPR84 activation triggers a physical separation between the RLuc8-Gαi donor and the GFP10-Gγ2 acceptor, resulting in a decrease in BRET signal whose amplitude is correlated to ligand efficacy (Gales et al., 2006). Moreover, signaling functions of GPCRs are tightly regulated by endocytosis, the targeting of receptors to endosomes and their sorting to lysosomes or recycling to the plasma membrane. The early endosomes (EEs) trafficking assay (Namkung et al., 2016. Nat Commun. 7, 12178) uses Rluc8-tagged GPR84 and Renilla GFP (rGFP) attached to the FYVE domain from human endofin/zinc finger FYVE domain-containing protein 16, which binds phosphatidylinositol 3-phosphate in EEs. Agonist stimulation of GPR84-Rluc8 leads to trafficking of the receptor to EEs, and ensuing increase of the donor concentration relative to the rGFP-FYVE acceptor anchored in the same cellular compartment, and thus results in an increase in BRET signal.
Plasmids—The cDNA clones for human GPR84 receptor, human Gαi2, Gβ1, and Gγ2 were obtained from the cDNA Resource Center (www.cdna.org). GFP10 (F64L, S147P, S202F and H231L variant of Aequorea victoria Green Fluorescent Protein) gBlocks gene fragments (Integrated DNA Technologies, IA) and linker were inserted in frame at the N-terminus of human Gγ2. Rluc8 (A^55T, Cl24A, S130A, K136R, A^143M, M185V, M253L, and S287L variant of the Renilla reniformis luciferase) gBlocks gene fragment was inserted with linkers in frame in between residues 91 and 92 of Gαi2 or at the C-terminus of GPR84. The FYVE domain from human endofin (residues Q739 to K806) attached in frame at the C terminus of a humanized Renilla GFP (rGFP), were synthesized as gBlocks gene fragments.
Bioluminescence Resonance Energy Transfer (BRET) Measurement-HEK293 cells were transfected with GPR84-Rluc8 and rGFP-FYVE for the EEs trafficking biosensor or with GPR84, Gαi2-Rluc8, GFP10-Gγ2, and Gβ1 for the Gαi biosensor. The following day, transiently transfected cells were seeded in 96-well white clear bottom microplates coated with poly-D-lysine and left in culture for 24 hours. Cells were washed once with Tyrode's buffer (140 mmol/L NaCl, 1 mmol/L CaCl2, 2.7 mmol/L KCl, 0.49 mmol/L MgCl2, 0.37 mmol/L NaH2PO4, 5.6 mmol/L glucose, 12 mmol/L NaHCO3, and 25 mmol/L HEPES, pH 7.5) before performing assays in Tyrode's buffer. Test compounds were incubated with cells for 5 (Gai) or 15 (EEs) minutes at 37° C. before addition of 200 nmol/L of the GPR84 agonist ZQ-16 (2-(Hexylthio)-6-hydroxy-4 (3H)-pyrimidinone) for 5 minutes at room temperature (Gai) or 30 minutes at 37° C. (EEs). The Rluc8 substrate coelenterazine 400A (Prolume, Lakeside, AZ) was added at a final concentration of 5 μmol/L and BRET readings were collected using an Infinite M1000 microplate reader (Tecan, Morrisville, NC). BRET2 readings between Rluc8 and GFP10 or rGFP were collected by sequential integration of the signals detected in the 370 to 450 nm (Rluc8) and 510 to 540 nm (GFP10, rGFP) windows. The BRET signal was calculated as the ratio of light emitted by acceptor (GFP10, rGFP) over the light emitted by donor (Rluc8). The values were corrected to net BRET by subtracting the background BRET signal obtained in cells transfected with Rluc8 constructs alone. Ligand-promoted net BRET values were calculated by subtracting vehicle-induced net BRET from ligand-induced net BRET.

T1 sequence (Q9NQS5 whole entry): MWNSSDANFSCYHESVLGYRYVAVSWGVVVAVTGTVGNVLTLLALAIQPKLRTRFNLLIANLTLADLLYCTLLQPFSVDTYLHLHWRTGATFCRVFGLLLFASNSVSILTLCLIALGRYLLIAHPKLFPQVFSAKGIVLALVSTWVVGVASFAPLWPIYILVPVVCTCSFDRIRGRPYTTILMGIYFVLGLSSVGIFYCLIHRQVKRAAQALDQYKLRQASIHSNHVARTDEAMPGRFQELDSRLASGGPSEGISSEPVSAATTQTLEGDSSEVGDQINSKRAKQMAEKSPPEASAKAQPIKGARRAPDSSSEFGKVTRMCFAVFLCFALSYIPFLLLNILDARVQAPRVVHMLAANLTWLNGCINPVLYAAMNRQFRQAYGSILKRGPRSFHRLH

Row | SMILES | IC50 [nM] | inhibition at 10 µM [%] | inhibition at 2 µM [%]
1 | CCc1cc(C#CCNS(C)(=O)=O)ccc1-c1cn(CC2OCC(C)(C)CO2)nn1 [Compound I-1, N-(3-(4-(1-((5,5-dimethyl-1,3-dioxan-2-yl)methyl)-1H-1,2,3-triazol-4-yl)-3-ethylphenyl)prop-2-ynyl)methanesulfonamide] | 300 to 1000 | > 75 | 
2 | CCc1cc(C#CCN)ccc1-c1cn(CC2OCC(C)(C)CO2)nn1 [Compound I-2] | 300 to 1000 | > 75 | 
3 | CC1(C)COC(Cn2cc(-c3ccc(C#CCOC4CC4)cc3C3CC3)nn2)OC1 [Compound I-3] | 300 to 1000 | > 75 | 
4 | C(#Cc1ccc(-c2cn(CC3OCC4(CC4)CO3)nn2)c(C2CC2)c1)COC1CC1 [Compound I-4] | 300 to 1000 |  | > 75
5 | CC(O)C1CN(c2ccc(-c3cn(CC4OCC5(CC5)CO4)nn3)c(N(C)C)c2)C1 (centres unmarked) [Compound I-5, 1-(1-(4-(1-(5,7-dioxaspiro[2.5]octan-6-ylmethyl)-1H-1,2,3-triazol-4-yl)-3-(dimethylamino)phenyl)azetidin-3-yl)ethanol] |  | > 75 | 
6 | CN(C)c1cc(N2CC3(CC(O)C3)C2)ccc1-c1cn(CC2OCC3(CC3)CO2)nn1 (centres unmarked) [Compound I-7, 2-(4-(1-(5,7-dioxaspiro[2.5]octan-6-ylmethyl)-1H-1,2,3-triazol-4-yl)-3-(dimethylamino)phenyl)-2-azaspir[3.3]heptan-6-ol] |  | > 75 | 
7 | Cc1ccc(C2CC2)nc1-c1cn(CC2OCC(C)(C)CO2)nn1 [Compound I-11] |  |  | ≤ 25
8 | CN(C)C(=O)Cn1cc(-c2ccc(N3CC(C)(CO)C3)cc2N(C)C)nn1 [Compound I-24] | 1000 to 3000 | > 75 | 
9 | CN(C)c1cc(N2CC3(COC3)C2)c(F)cc1-c1cn(CC2OCC3(CC3)CO2)nn1 [Compound I-25] | ≤ 300 |  | > 75
10 | CN(C)c1cc(C#CC2(O)CC2)ccc1-c1cn(CC2OCC(C)(C)CO2)nn1 [Compound I-28] | ≤ 300 |  | > 75
11 | CC1(C)COC(Cn2cc(C#Cc3ccc(C4CC4)cc3)nn2)OC1 [Compound I-29] |  | ≤ 25 | 
12 | CC(O)C1(C)CN(c2ccc(-c3cn(CC4OCC5(CC5)CO4)nn3)c(N(C)C)c2)C1 (centres unmarked) [Compound I-30] | ≤ 300 |  | > 75
13 | CC1(C)COC(Cn2cc(C#Cc3ccncc3)nn2)OC1 [Compound I-32] |  | ≤ 25 | 
14 | CCc1cc(C#CC(N)=O)ccc1-c1cn(CC2OCC(C)(C)CO2)nn1 [Compound I-37] | ≤ 300 | > 75 | 
15 | CN(C)c1cc(N2CC(C)(CO)C2)ccc1-c1cn(CC2OCC(C)(C)CO2)cn1 [Compound I-39] | 300 to 1000 | > 75 | 
16 | CN(C)c1cc(N2CC(C)(CO)C2)ccc1-c1cn(CC2OCC3(CC3)CO2)cn1 [Compound I-41] | ≤ 300 |  | > 75
17 | CN(C)c1cc(N2CC3(COC3)C2)ccc1-c1cn(CC2OCC3(CC3)CO2)cn1 [Compound I-42] |  | > 75 | 
18 | CC1(C)COC(Cn2ncc(C#Cc3ccncc3)n2)OC1 [Compound I-43] |  | ≤ 25 | 

The next lines start with the values.

Row | IC50 [nM] | inhibition at 10 µM [%] | inhibition at 2 µM [%] | SMILES
19 |  |  | > 75 | C(#CC1CCC1)c1cnc(-c2cn(CC3OCC4(CC4)CO3)nn2)c(OC2CC2)c1 [Compound I-6]
20 | 300 to 1000 | > 75 |  | CC(C)(O)C#Cc1cnc(-c2cn(CC3OCC(C)(C)CO3)nn2)c(OC2CC2)c1 [Compound I-8]
21 | ≤ 300 |  | > 75 | C(#Cc1cnc(-c2cn(CC3OCC4(CC4)CO3)nn2)c(OC2CC2)c1)CN1CC2(CC2)C1 [Compound I-9]
22 |  | ≤ 25 |  | CC1(C)COC(Cn2cc(-c3ncc(C(=O)NCc4cnccn4)cc3OC3CC3)nn2)OC1 [Compound I-10]
23 |  |  | ≤ 25 | Cc1cc(C#CC2CC2)ccc1-c1cn(Cc2cncs2)nn1 [Compound I-12]
24 |  | ≤ 25 |  | Cc1cc(C#CC2CC2)ccc1-c1cn(Cc2cocn2)nn1 [Compound I-13]
25 | 300 to 1000 | > 75 |  | CC1(C)COC(Cn2cc(-c3ncc(C#N)cc3OC3CC3)nn2)OC1 [Compound I-14]
26 | ≤ 300 |  | > 75 | CC(=O)NCC#Cc1cnc(-c2cn(CC3OCC(C)(C)CO3)nn2)c(OC2CC2)c1 [Compound I-15]
27 | ≤ 300 |  | > 75 | FC1(F)CC12CN(CC#Cc1cnc(-c3cn(CC4OCC5(CC5)CO4)nn3)c(OC3CC3)c1)C2 [Compound I-16]
28 | 300 to 1000 | > 75 |  | c1nc(-c2cn(CC3OCC4(CC4)CO3)nn2)c(OC2CC2)cc1N1CC2(CC2)C1 [Compound I-17]
29 |  | 25 to 50 |  | FC1(F)CC12CN(c1cnc(-c3cn(CC4OCC5(CC5)CO4)nn3)c(OC3CC3)c1)C2 [Compound I-18]
30 |  |  | ≤ 25 | Cc1cc(C#CC2CC2)ccc1-c1cn(Cc2cscn2)nn1 [Compound I-19]
31 |  | > 75 |  | c1nc(-c2cn(CC3OCC4(CC4)CO3)nn2)c(OC2CC2)cc1N1CC2(COC2)C1 [Compound I-20]
32 | ≤ 300 |  | > 75 | CC1(C)COC(Cn2cc(-c3ncc(C#CCNC4COC4)cc3OC3CC3)nn2)OC1 [Compound I-21]
33 | ≤ 300 |  | > 75 | OC1CC2(C1)CN(CC#Cc1cnc(-c3cn(CC4OCC5(CC5)CO4)nn3)c(OC3CC3)c1)C2 (centres unmarked) [Compound I-22]
34 | 1000 to 3000 | > 75 |  | CN(C)C(=O)Cn1cc(-c2ncc(C#CC3CC3)cc2OC2CC2)nn1 [Compound I-23, 2-(4-(3-cyclopropoxy-5-(cyclopropylethynyl)pyridin-2-yl)-1H-1,2,3-triazol-1-yl)-N,N-dimethylacetamide]
35 |  | > 75 |  | CC1(CO)CN(c2cnc(-c3cn(CC4CC5(CC5)CO4)nn3)c(OC3CC3)c2)C1 (centres unmarked) [Compound I-26]
36 |  | 50 to 75 |  | CC1(CO)CN(c2cnc(-c3cn(CC4OCC(F)(F)CO4)nn3)c(OC3CC3)c2)C1 [Compound I-27]
37 | ≤ 300 | > 75 |  | OC1CC2(C1)CN(c1cnc(-c3cn(CC4OCC5(CC5)CO4)nn3)c(OC3CC3)c1)C2 (centres unmarked) [Compound I-31]
38 |  | ≤ 25 |  | Cc1cc(C#CC2CC2)ccc1-c1cn(Cc2cnco2)nn1 [Compound I-33]
39 | ≤ 300 |  | > 75 | CC1(C)COC(Cn2cc(-c3ncc(C#CC4(O)CC4)cc3OC3CC3)nn2)OC1 [Compound I-34]
40 | ≤ 300 |  | > 75 | OC1(C#Cc2cnc(-c3cn(CC4OCC5(CC5)CO4)nn3)c(OC3CC3)c2)CC1 [Compound I-35]
41 | ≤ 300 |  | > 75 | CC1(C)COC(Cn2cc(-c3ncc(C#CCNS(C)(=O)=O)cc3OC3CC3)nn2)OC1 [Compound I-36]
42 | ≤ 300 |  | > 75 | CC1(C)COC(Cn2cc(-c3ncc(C#CCNC4CC(F)(F)C4)cc3OC3CC3)nn2)OC1 [Compound I-38]
43 |  | 50 to 75 |  | CC1(C)COC(Cn2cc(-c3ncc(CC#N)cc3OC3CC3)nn2)OC1 [Compound I-40]

Reference: US20260256747A1, “ARYL-TRIAZOLYL AND RELATED GPR84 ANTAGONISTS AND USES THEREOF” (Liminal BioSciences Limited, priority 2022, published 2026)
